Data: patent US20020160012A1, “Vaccine chip technology exploiting immunostimulating fragment of TGF-BETA” (priority 2000, published 2002)
No end group written: not given here.

How the values were obtained:
parvovirus peptide [1] = experiment: Rabbit immunisation with parvovirus peptide, TGF-29 dose and Titermax adjuvant, serum ELISA (Example 3); assay type: in vivo, rabbits; settings: bleeding T3 (6 weeks after first immunisation); 20 ug TGF-29 + 100 ug parvovirus peptide + Titermax (preparation Iris)
Procedure: Both preparations were subcutaneously injected into 2 groups of rabbits. Each injected dose was 0, 1 mL and the preparations for a resulting volume between 0,4 and 0,5 mL was made as follows:
The rabbits were then immunised according to the normal standard immunisation procedure for antibody production in rabbits at a legal laboratory animal facility.
(§1) Before immunisation, a pre-immunisation serum sample (T0) of each rabbit was collected. Before each of the following immunisations (given at 2 week intervals) an immune serum sample (T1, T2, or T3) was collected from each rabbit.
(§2) The serum samples were analysed on an ELISA plate according to standard laboratory operations: Coating the plate bottom with parvo virus peptide derivative overnight, washings, incubation with serial dilutions of all serum samples, washings, incubation with HRP-Goat anti Rabbit Ig, washings, incubation with substrate, stop reaction with acid, and reading of the plate.

parvovirus peptide [2] = experiment: Rabbit immunisation with Parv or Parv+TGF-29, serum ELISA for antibody titre (Example 1); assay type: in vivo, rabbits; settings: immune serum samples vs corresponding T0 sera; 3 subcutaneous immunisations at 2 week intervals; freunds incomplete adjuvant
Procedure: Both preparations were subcutaneously injected into 2 groups of rabbits. The content of each injected dose of 0.2 mL were:
The rabbits were immunised by subcuteous injection according to normal standard immunisation procedures for antibody production in rabbits at a legal laboratory animal facility.
(§3) Before immunisation, a pre-immunisation serum sample (T0) of each rabbit were collected. Two weeks after the last of 3 immunisations (given at 2 week intervals) an immune serum sample (T1) was collected from each rabbit. Hereafter further immune serum samples were collected T2 (4 weeks after T1); T3 (four weeks after T2) etc.
as §2

[3] = Clinical signs of immunised rabbits; assay type: in vivo; settings: Example 1; subcutaneous, 3 immunisations at 2 week intervals
Description: as §3
Before immunisation, a pre-immunisation serum sample (T0) of each rabbit were collected. Before each of the following immunisations (given at 2 week intervals) an immune serum sample (T1, T2, T3 or T4 ) was collected from each rabbit. The serum sampling frequency is higher compared with example 1.
as §1

ALDAAYCFRNVQDNCCLRPLYIDFKRDLG (cysteine pairing not given here) [TGF-29, N-terminal 29 amino acid fragment of mature TGF-β]
titer to the parvovirus peptide compared with the corresponding T0 serum (parvovirus peptide [1]): more than three 5-fold serial antiserum dilutions better
titer to the parvovirus peptide, rank among all bleedings of the example (parvovirus peptide [1]): highest titer

Ac-CDGAVQPDGGQPAVRNER-NH2 [Parv]
antibody titre to the parvovirus peptide (parvovirus peptide [2]): Non-detectable or less antibody titre to the parvovirus peptide than in the corresponding T0 sera
unusual clinical signs [3]: None of the rabbits showed any unusual clinical signs
